Read-outs that look alike come from different tables or passages of the source.
How the values were obtained:
[1] = system: HCV replicon; experiment: HCV replicon FRET assay; format: cell-based; settings: Hepatitis C virus
From the text: FRET Assay Preparation. To perform the HCV FRET screening assay, 96-well cell culture plates were used. The FRET peptide (Anaspec, Inc.) (Taliani et al., Anal. Biochem. 1996, 240, 60-67) contains a fluorescence donor, EDANS, near one end of the peptide and an acceptor, DABCYL, near the other end. The fluorescence of the peptide is quenched by […] resonance energy transfer (RET) between the donor and the acceptor, but as the NS3 protease cleaves the peptide the products are released from RET quenching and the fluorescence of the donor becomes apparent. The assay reagent was made as follows: 5× cell Luciferase cell culture lysis reagent from Promega (#E153A) diluted to 1× with dH2O, NaCl added to 150 mM final, the FRET peptide diluted to 20 uM final from a 2 mM stock.
To prepare plates, HCV replicon cells, with or without a Renilla luciferase reporter gene, were trypsinized and placed into each well of a 96-well plate with titrated test compounds added in columns 3 through 12; columns 1 and 2 contained a control compound (HCV protease inhibitor), and the bottom row contained cells without compound. The plates were then placed in a CO2 incubator at 37° C.
Assays. Subsequent to addition of the test compounds described above (FRET Assay Preparation), at various times the plate was removed and Alamar blue solution (Trek Diagnostics, #00-100) was added per well as a measure of cellular toxicity. After reading in a Cytoflour 4000 instrument (PE Biosystems), plates were rinsed with PBS and then used for FRET assay by the addition of 30 ul of the FRET peptide assay reagent described above (FRET Assay Preparation) per well. The plate was then placed into the Cytoflour 4000 instrument which had been set to 340 excite/490 emission, automatic mode for 20 cycles and the plate read in a kinetic mode. Typically, the signal to noise using an endpoint analysis after the reads was at least three-fold. Alternatively, after Alamar blue reading, plates were rinsed with PBS, 50 ul of DMEM (high glucose) without phenol red was added and plates were then used for luciferase assay using the Promega Dual-Glo Luciferase Assay System.
Compound analysis was determined by quantification of the relative HCV replicon inhibition and the relative cytotoxicity values. To calculate cytoxicity values, the average Alamar Blue fluorescence signals from the control wells were set as 100% non-toxic. The individual signals in each of the compound test wells were then divided by the average control signal and multiplied by 100% to determine […]. To calculate the HCV replicon inhibition values, an average background value was obtained from the two wells containing the highest amount of HCV protease inhibitor at the end of the assay period. These numbers were similar to those obtained from naïve Huh-7 cells.
The background numbers were then subtracted from the average signal obtained from the control wells and this number was used as 100% activity. The individual signals in each of the compound test wells were then divided by the averaged control values after background subtraction and multiplied by 100% to determine percent activity. EC50 values for a protease inhibitor titration were calculated as the concentration which caused a 50% reduction in FRET or luciferase activity. The two numbers generated for the compound plate, percent cytoxicity and percent activity were used to determine compounds of interest for further analysis.

[2] = target: T1, HCV NS5B (Hepatitis C virus genotype 1b, UniProt Q9WMX2); experiment: HCV NS5B RdRp enzyme assay (preincubation protocol); format: biochemical
T1 construct: The protein was expressed with an 18 amino acid C-terminal truncation to enhance the solubility; made in house; host or cells: E. coli BL21 (DE3), pET21a
T1 sequence (Q9WMX2 2420-2992): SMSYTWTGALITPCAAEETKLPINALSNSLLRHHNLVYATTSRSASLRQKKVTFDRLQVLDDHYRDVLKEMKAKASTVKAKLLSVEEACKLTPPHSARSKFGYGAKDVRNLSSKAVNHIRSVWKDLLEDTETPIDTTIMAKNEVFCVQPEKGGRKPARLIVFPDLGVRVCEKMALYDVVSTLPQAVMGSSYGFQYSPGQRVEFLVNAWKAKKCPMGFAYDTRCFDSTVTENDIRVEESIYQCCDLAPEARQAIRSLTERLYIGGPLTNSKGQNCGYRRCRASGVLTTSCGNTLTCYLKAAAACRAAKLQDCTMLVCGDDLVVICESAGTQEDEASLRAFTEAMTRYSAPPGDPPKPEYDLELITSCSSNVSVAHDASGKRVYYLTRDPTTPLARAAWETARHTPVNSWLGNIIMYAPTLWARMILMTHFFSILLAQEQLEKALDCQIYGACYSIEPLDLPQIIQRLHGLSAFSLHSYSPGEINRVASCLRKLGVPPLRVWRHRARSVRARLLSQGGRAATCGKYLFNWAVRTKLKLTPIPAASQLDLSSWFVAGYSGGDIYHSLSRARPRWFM
In short: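 C-terminally truncated (Δ18) genotype 1b NS5B from E. coli, 14 nM, added to compound, then polyA template (0.2 nM), 3H-UTP (0.29 μM) and oligo-dT12 primer precaptured on streptavidin SPA beads. 4 h at 30 °C, pH 7.5, 2% DMSO; SPA readout; IC50 from seven concentrations by logistic fit.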

[3] = Table 1b, FRET assay, read-out: EC50*
[4] = Table 1, FRET assay, read-out: EC50*

SMILES	EC50 [1, 3] [µM]	IC50 ([2]; Table 1b, read-out: IC50*) [µM]	EC50 [1, 4] [µM]	IC50 ([2]; Table 1, read-out: IC50*) [µM]	EC50 [1] [µM]
COc1ccc2c(c1)CC(C(=O)N1CC(CO)C1)Cn1c-2c(C2CCCCC2)c2ccc(C(=O)NS(=O)(=O)N(C)C)cc21 (centres unmarked)	0.03 to 1	0.02 to 1			
COc1ccc2c(c1)C=C(C(=O)N(C)CC(=O)N(C)C)Cn1c-2c(C2CCCCC2)c2ccc(C(=O)N(C)CC(=O)N(C)C)cc21	1 to 10	0.02 to 1			
COc1ccc2c(c1)C=C(C(=O)N1CC(OP(=O)(O)O)C1)Cn1c-2c(C2CCCCC2)c2ccc(C(=O)NS(=O)(=O)N(C)C)cc21	1 to 10	0.02 to 1			
CN(C)S(=O)(=O)NC(=O)c1ccc2c(C3CCCCC3)c3n(c2c1)CC(C(=O)N1CCN(c2ncncn2)CC1)=Cc1ccccc1-3			0.07 to 1	0.01 to 1	
CN(C)S(=O)(=O)NC(=O)c1ccc2c(C3CCCCC3)c3n(c2c1)CC(C(=O)N1CCN(C(=O)N2CCOCC2)CC1)=Cc1ccccc1-3			0.07 to 1	0.01 to 1	
CN(C)S(=O)(=O)NC(=O)c1ccc2c(C3CCCCC3)c3n(c2c1)CC(C(=O)N1CCC(N2CCC(F)(F)CC2)CC1)=Cc1ccccc1-3			0.07 to 1	0.01 to 1	
CN(C)S(=O)(=O)NC(=O)c1ccc2c(C3CCCCC3)c3n(c2c1)CC(C(=O)N1CCN(C(=O)C2CC2)CC1)=Cc1ccccc1-3			0.07 to 1	0.01 to 1	
COC(=O)c1ccc2c(C3CCCCC3)c3n(c2c1)CC(C(=O)N1CCOC(CO)C1)=Cc1c(OC)cccc1-3 (centres unmarked)	> 10	> 12.5			
CN(C)S(=O)(=O)NC(=O)c1ccc2c(C3CCCCC3)c3n(c2c1)CC(C(=O)N1CCNC(=O)C1)=Cc1ccccc1-3			0.07 to 1	0.01 to 1	
O=C(O)c1ccc2c(C3CCCCC3)c3n(c2c1)CC(C(=O)N1CCC(N2CCCCC2=O)CC1)Cc1ccccc1-3 (centres unmarked)			0.07 to 1	0.01 to 1	
COc1ccc2c(c1)C=C(C(=O)N1CC(NC(=O)OC(C)(C)C)C1)Cn1c-2c(C2CCCCC2)c2ccc(C(=O)NS(=O)(=O)N(C)C)cc21	0.03 to 1	0.02 to 1			
CN(C)S(=O)(=O)NC(=O)c1ccc2c(C3CCCCC3)c3n(c2c1)CC(C(=O)N1CCC(N2CCOCC2)CC1)=Cc1cc(OCc2ccccc2)ccc1-3 [drawing 135]			0.07 to 1	0.01 to 1	
CN(C)S(=O)(=O)NC(=O)c1ccc2c(C3CCCCC3)c3n(c2c1)CC(C(=O)N1CCC(N2CCOCC2)CC1)=Cc1cc(O)ccc1-3			0.07 to 1	0.01 to 1	
COC(=O)c1ccc2c(C3CCCCC3)c3n(c2c1)CC(C(=O)N(C)CC1CCCN(C)C1)Cc1ccccc1-3 (centres unmarked)			0.07 to 1	0.01 to 1	
CC(=O)NN(C)C(=O)C1=Cc2ccccc2-c2c(C3CCCCC3)c3ccc(C(=O)O)cc3n2C1 [drawing 154]			1 to 10	0.01 to 1	
O=C(O)c1ccc2c(C3CCCCC3)c3n(c2c1)CC(C(=O)N1CCN(c2ncccn2)CC1)=Cc1ccccc1-3			0.07 to 1	0.01 to 1	
O=C(O)c1ccc2c(C3CCCCC3)c3n(c2c1)CC(C(=O)N1C2CCC1CC2)=Cc1ccccc1-3				0.01 to 1	0.07 to 1
CN1CCCC(CN(C)C(=O)C2Cc3ccccc3-c3c(C4CCCCC4)c4ccc(C(=O)NS(=O)(=O)N(C)C)cc4n3C2)C1 (centres unmarked)			< 0.02	0.01 to 1	
COc1ccc2c(c1)C=C(C(=O)N(CC(=O)O)CC(=O)O)Cn1c-2c(C2CCCCC2)c2ccc(C(=O)NS(=O)(=O)N(C)C)cc21	> 10	0.02 to 1			
COc1ccc2c(c1)CC(C(=O)N1CCN(C(=O)C(C)(C)O)CC1)Cn1c-2c(C2CCCCC2)c2ccc(C(=O)NS(=O)(=O)N(C)C)cc21 (centres unmarked)	0.03 to 1	0.02 to 1			
COc1ccc2c(c1)C=C(C(=O)N1CC(N(C)C)C1)Cn1c-2c(C2CCCCC2)c2ccc(C(=O)NS(=O)(=O)N(C)C)cc21	0.03 to 1	0.02 to 1			
COc1ccc2c(c1)C=C(C(=O)N(C)[C@H](C(=O)N1CCOCC1)C(C)C)Cn1c-2c(C2CCCCC2)c2ccc(C(=O)NS(=O)(=O)N(C)C)cc21	0.03 to 1	0.02 to 1			
